For this experiment, the target named is T1, RORγ (Homo sapiens, UniProt P51449).
T1 construct: expressed in transfected cells; host or cells: 293FT cells (Invitrogen), expression vector pFN26A (Promega)
T1 sequence (P51449 269-508 limits assumed): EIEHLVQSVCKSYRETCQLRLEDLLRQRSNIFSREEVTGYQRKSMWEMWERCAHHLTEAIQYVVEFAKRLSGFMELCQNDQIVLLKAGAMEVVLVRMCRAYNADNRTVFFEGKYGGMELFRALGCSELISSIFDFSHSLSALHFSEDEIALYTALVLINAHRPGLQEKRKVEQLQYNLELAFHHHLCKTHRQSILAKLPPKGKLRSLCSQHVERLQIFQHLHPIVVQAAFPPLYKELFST
As to the kind of experiment: RORγ GAL4 reporter gene assay (luciferase readout, 293FT cells). It is filed as cell-based. The following applies: inhibition of RORγ (GAL4-RORγ-LBD) in transfected 293FT cells, luciferase signal, overnight incubation; read-out: mean pIC50 (converted). As for the experimental part: RORγ GAL4 Reporter Gene Assay
Example inhibitors 1-47 were tested for their ability to inhibit RORγ activity in a RORγ GAL4 reporter gene assay. The assay procedure and results are described below.
RORγ GAL4 Reporter Gene Assay Description
A GAL4 one-hybrid reporter system employing luciferase readout was established to determine inhibition of RORγ in 293FT cells. The RORγ ligand-binding domain (LBD) was fused to the yeast GAL4 DNA binding domain (DBD) and placed under the control of the human cytomegalovirus (CMV) immediate early promoter, using expression vector pFN26A (Promega) and standard recombinant DNA cloning methods. To serve as a control in the assay, a similar vector was generated in which the GAL4-DBD was fused to Herpes simplex virus protein 16 (VP16), a constitutive transcriptional activator.
To monitor the inhibitory effect of compounds on RORγ, a transcriptional reporter construct was used. The pGL4.35 vector (Promega) contains nine copies of the GAL4 Upstream Activator Sequence (UAS). This sequence drives the transcription of the luciferase reporter gene luc2P in response to binding of a fusion protein containing the GAL4 DNA binding domain, as for example expressed by the GAL4-RORγ-LBD and GAL4-VP16 expression vectors described above. To allow a GAL4 fusion protein to drive the expression of the luciferase reporter, the pGL4.35 expression vector and the appropriate GAL4 fusion protein expression vector were bulk transfected in the 293FT cells using standard transfection techniques.
The day after transfection, cells were plated into 96 well plates, test compound was added and the plates were incubated overnight. Subsequently, the firefly luciferase activity was quantified using luciferase detection reagent and luminescence readout.
Detailed Assay Description
293FT cells (Invitrogen) were transfected with a GAL4 fusion protein expression vector (as described above) and the transcriptional reporter construct (pGL4.35, Promega). 60 μL of TransIT-293 transfection reagent (Mirus Bio) was added drop wise to 1500 μl Opti-MEM I Reduced Serum Medium (Invitrogen) and incubated at room temperature (RT) for 5 to 20 minutes. 1500 μL of this reagent mixture was added to 5 μg of GAL4 fusion protein expression vector and 5 μg of the transcriptional reporter construct, and incubated at RT for 20 minutes.
To harvest 293FT cells from a T75 flask, first the culture medium was taken off the cells. Subsequently, the cells were washed with Phosphate Buffered Saline (PBS) (Lonza), after which the PBS was removed. To dissociate the cells, 1 ml of TrypLE Express (Invitrogen) was added to the flask, followed by incubation at RT until the cells visually started to detach. Cells were collected in 5 mL of assay medium (DMEM culture medium (Lonza), 10% dialyzed FBS (Invitrogen) and Pen/Strep (Lonza)) to achieve a single cell suspension. 10×10^6 cells were spun down and re-suspended in 10 mL of assay medium. Subsequently, the cell suspension was added to the transfection mix tube, and then transferred as a whole to a T75 flask (Greiner), followed by overnight (16-24 hours) incubation at 37° C. and 5% CO2.
For compound screening, the cells were harvested (as described above) and counted. 13×10^6 cells were spun down, the supernatant was aspirated and the cells were re-suspended in 17.3 mL of assay medium obtaining a cell suspension of 0.75×10^6 cells/mL. 80 μL of cell suspension (60,000 cells) was plated per well into a white, flat bottom, tissue culture treated, 96 well screening plates (Greiner).
Test compounds were diluted, starting from a 10 mM dimethylsulf oxide (DMSO) stock solution, to serial dilutions in DMSO at 500× the final test concentration. Subsequently, these solutions were diluted to 5× the final test concentration in two 10-fold-dilution steps in assay medium. The final DMSO concentration of the 5× test compound solution was 1%. […]

Take `COc1cccc(Oc2cc(NC(=O)Cc3ccc(S(=O)(=O)NC4CC4)cc3)ccc2-n2cnc(C)c2)c1` [Example 14, 2-[4-(cyclopropylsulfamoyl)phenyl]-N-[3-(3-methoxyphenoxy)-4-(4-methyl-1H-imidazol-1-yl)phenyl]acetamide]: the IC50 was no more than 1000 nM.

With `COc1cccc(Oc2cc(NC(=O)Cc3ccc(S(=O)(=O)NC4CC4)cc3)ccc2-c2cccc(F)c2)c1` [Example 16, 2-[4-(cyclopropylsulfamoyl)phenyl]-N-[4-(3-fluorophenyl)-3-(3-methoxyphenoxy)phenyl]acetamide], the IC50 was no more than 1000 nM.

With `O=C(Cc1ccc(S(=O)(=O)NC2CC2)cc1)Nc1ccc(-c2cccc(F)c2)c(Oc2cccc(Cl)c2)c1` [Example 17, N-[3-(3-chlorophenoxy)-4-(3-fluorophenyl)phenyl]-2-[4-(cyclopropylsulfamoyl)phenyl]acetamide], the IC50 is no more than 1000 nM.

As for `O=C(Cc1ccc(S(=O)(=O)NC2CC2)cc1)Nc1ccc(-c2ccc(F)c(F)c2)c(Oc2cccc(Cl)c2)c1` [Example 18, N-[3-(3-chlorophenoxy)-4-(3,4-difluorophenyl)phenyl]-2-[4-(cyclopropylsulfamoyl)phenyl]acetamide], the IC50 is no more than 1000 nM.

For the compound `O=C(Cc1ccc(S(=O)(=O)NC2CC2)cc1)Nc1ccc(-c2cccc(F)c2)c(Oc2cccc(C(F)(F)F)c2)c1` [Example 19, 2-[4-(cyclopropylsulfamoyl)phenyl]-N-[4-(3-fluorophenyl)-3-[3-(trifluoromethyl)phenoxy]phenyl]acetamide], the IC50 is no more than 1000 nM.

With `O=C(Cc1ccc(S(=O)(=O)CC2CC2)cc1)Nc1nc(-c2ccccc2)c(Oc2ccccc2)s1` [Example 20, 2-(4-cyclopropylmethanesulfonylphenyl)-N-(5-phenoxy-4-phenyl-1,3-thiazol-2-yl)acetamide], the IC50 was no more than 1000 nM.

For the compound `O=C(Cc1ccc(S(=O)(=O)CC2CC2)cc1)Nc1nc(-c2ccccc2)c(Oc2cccnc2)s1` [Example 21, 2-(4-cyclopropylmethanesulfonylphenyl)-N-[4-phenyl-5-(pyridin-3-yloxy)-1,3-thiazol-2-yl]acetamide], the IC50 is no more than 1000 nM.

With `O=C(Cc1ccc(S(=O)(=O)CC2CC2)cc1)Nc1nc(-c2ccccc2)c(C(=O)c2ccccc2)s1` [Example 22, N-(5-benzoyl-4-phenyl-1,3-thiazol-2-yl)-2-(4-cyclopropylmethanesulfonylphenyl)acetamide], the IC50 was no more than 100 nM.

For `O=C(Cc1ccc(S(=O)(=O)CC2CC2)cc1)Nc1nc(-c2cccc(Cl)c2)c(C(=O)c2ccc(Cl)cc2)s1` [Example 23, N-[5-(4-chlorobenzoyl)-4-(3-chlorophenyl)-1,3-thiazol-2-yl]-2-(4-cyclopropylmethanesulfonylphenyl)acetamide], the IC50 was no more than 100 nM.

Turning to `O=C(Cc1ccc(S(=O)(=O)CC2CC2)cc1)Nc1cc(-c2ccccc2)cs1` [Example 24, 2-(4-cyclopropylmethanesulfonylphenyl)-N-(4-phenylthiophen-2-yl)acetamide], the IC50 was no more than 1000 nM.

Turning to `O=C(Cc1ccc(S(=O)(=O)CC2CC2)cc1)Nc1cc(-c2cccnc2)cs1` [Example 25, 2-(4-cyclopropylmethanesulfonylphenyl)-N-[4-(pyridin-3-yl)thiophen-2-yl]acetamide], the IC50 is no more than 1000 nM.

Take `O=C(Cc1ccc(S(=O)(=O)NC2CC2)cc1)Nc1nc(-c2ccccc2)c(C(=O)c2ccccc2)s1` [Example 26, N-(5-benzoyl-4-phenyl-1,3-thiazol-2-yl)-2-[4-(cyclopropylsulfamoyl)phenyl]acetamide]: the IC50 is no more than 100 nM.

For `O=C(Cc1ccc(S(=O)(=O)CC2CC2)cc1)Nc1cc(-c2ccccc2)c(C(=O)c2ccccc2)s1` [Example 27, N-(5-benzoyl-4-phenylthiophen-2-yl)-2-(4-cyclopropylmethanesulfonylphenyl)acetamide], the IC50 is no more than 100 nM.

Regarding `O=C(Cc1ccc(S(=O)(=O)CC2CC2)cc1)Nc1ccc(-c2ccccc2OC(F)(F)F)c(Cl)c1` [Example 28, N-{3-chloro-4-[2-(trifluoromethoxy)phenyl]phenyl}-2-(4-cyclopropylmethanesulfonylphenyl)acetamide], the IC50 was no more than 100 nM.

Regarding `Cc1cc(NC(=O)Cc2ccc(S(=O)(=O)CC3CC3)cc2)ccc1-c1ccccc1OC(F)(F)F` [Example 29, 2-(4-cyclopropylmethanesulfonylphenyl)-N-{3-methyl-4-[2-(trifluoromethoxy)phenyl]phenyl}acetamide], the IC50 is no more than 100 nM.

Take `O=C(Cc1ccc(S(=O)(=O)CC2CC2)cc1)Nc1cc(Cl)c(-c2ccccc2OC(F)(F)F)c(Cl)c1` [Example 30, 2-(4-cyclopropylmethanesulfonylphenyl)-N-{3,5-dichloro-4-[2-(trifluoromethoxy)phenyl]phenyl}acetamide]: the IC50 is no more than 100 nM.

As to `Cc1cc(NC(=O)Cc2ccc(S(=O)(=O)CC3CC3)cc2)ncc1-c1ccccc1OC(F)(F)F` [Example 31, 2-(4-cyclopropylmethanesulfonylphenyl)-N-{4-methyl-5-[2-(trifluoromethoxy)phenyl]pyridin-2-yl}acetamide], the IC50 was no more than 100 nM.

Consider `Cc1nc(NC(=O)Cc2ccc(S(=O)(=O)CC3CC3)cc2)ccc1-c1ccccc1OC(F)(F)F` [Example 32, 2-(4-cyclopropylmethanesulfonylphenyl)-N-{6-methyl-5-[2-(trifluoromethoxy)phenyl]pyridin-2-yl}acetamide], for which the IC50 was no more than 100 nM.

Take `O=C(Cc1ccc(S(=O)(=O)NC2CC2)cc1)Nc1ccc(-c2ccccc2OC(F)(F)F)c(Cl)c1` [Example 33, N-{3-chloro-4-[2-(trifluoromethoxy)phenyl]phenyl}-2-[4-(cyclopropylsulfamoyl)phenyl]acetamide]: the IC50 was no more than 100 nM.

With `Cc1nc(NC(=O)Cc2ccc(S(=O)(=O)NC3CC3)cc2)ccc1-c1ccccc1OC(F)(F)F` [Example 34, 2-[4-(cyclopropylsulfamoyl)phenyl]-N-{6-methyl-5-[2-(trifluoromethoxy)phenyl]pyridin-2-yl}acetamide], the IC50 is no more than 100 nM.

With `Cc1cc(NC(=O)Cc2ccc(S(=O)(=O)NC3CC3)cc2)ncc1-c1ccccc1OC(F)(F)F` [Example 35, 2-[4-(cyclopropylsulfamoyl)phenyl]-N-{4-methyl-5-[2-(trifluoromethoxy)phenyl]pyridin-2-yl}acetamide], the IC50 is no more than 1000 nM.

In the case of `Cc1cc(NC(=O)Cc2ccc(S(=O)(=O)NC3CC3)cc2)ccc1-c1ccccc1OC(F)(F)F` [Example 36, 2-[4-(cyclopropylsulfamoyl)phenyl]-N-{3-methyl-4-[2-(trifluoromethoxy)phenyl]phenyl}acetamide], the IC50 was no more than 100 nM.

Regarding `Cc1cc(NC(=O)Cc2ccc(S(=O)(=O)CC3CC3)cc2)nc(C)c1-c1ccccc1OC(F)(F)F` [Example 37, 2-(4-cyclopropylmethanesulfonylphenyl)-N-{4,6-dimethyl-5-[2-(trifluoromethoxy)phenyl]pyridin-2-yl}acetamide], the IC50 was no more than 100 nM.

Consider `Cc1ccn(-c2ccc(NC(=O)Cc3ccc(S(=O)(=O)CC4CC4)cc3)cc2)n1` [Example 40, 2-(4-cyclopropylmethanesulfonylphenyl)-N-[4-(3-methyl-1H-pyrazol-1-yl)phenyl]acetamide], for which the IC50 is no more than 1000 nM.
